SMILES strings stand for the structures.

For the test, the target named is 2-methylisoborneol synthase (MIBS), full length (Streptomyces coelicolor, UniProt Q9F1Y6, E193A). As to the kind of experiment: GC-MS of pentane-extracted products. The test is classed as biochemical. The note with it: 60 μM substrate, 5 μM enzyme, 10 mM MgCl2, pH 7.0, 30 °C, 12 h.
Sequence of 2-methylisoborneol synthase (MIBS), full length (Q9F1Y6 whole entry E193A): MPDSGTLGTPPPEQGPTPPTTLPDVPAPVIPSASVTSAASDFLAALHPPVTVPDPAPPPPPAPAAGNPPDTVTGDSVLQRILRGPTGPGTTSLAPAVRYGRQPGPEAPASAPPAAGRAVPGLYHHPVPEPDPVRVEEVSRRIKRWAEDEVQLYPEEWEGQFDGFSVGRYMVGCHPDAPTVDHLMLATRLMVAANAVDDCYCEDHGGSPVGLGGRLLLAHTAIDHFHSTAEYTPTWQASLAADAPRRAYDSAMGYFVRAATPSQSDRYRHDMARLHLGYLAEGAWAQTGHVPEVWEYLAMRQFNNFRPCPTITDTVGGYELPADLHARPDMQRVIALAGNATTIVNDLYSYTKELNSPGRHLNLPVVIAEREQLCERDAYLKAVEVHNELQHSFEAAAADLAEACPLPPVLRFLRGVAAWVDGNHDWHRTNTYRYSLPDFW

Take `CC(C)=CCC/C(C)=C(\C)COP(=O)(O)OP(=O)(O)O` [2MGPP, 2-methylgeranyl diphosphate]: the “GC-MS of pentane-extracted products” value is “overnight incubation of the E193A, E193L, and E193D mutants with 2MGPP”.

Source of the values: article PMC3323742 (Biochemistry, 2012).
